According to patent US9957267B2, “Somatostatin modulators and uses thereof” (Crinetics Pharmaceuticals, Inc., priority 2015, dated 2018):

Key:
Format in all cases: cell-based
[1] = biological target: T1, human somatostatin receptor subtype 2a (Homo sapiens, UniProt P30874); assay: cAMP assay for SSTR2a agonists (HTRF cAMP kit, NKH-477 stimulated); conditions: CHO cells stably expressing human SSTR2a, 1.6 μM NKH-477
T1 construct: expressed in transfected cells
Method: Chinese hamster ovary (CHO) cells stably expressing one of the six human or rodent somatostatin receptor subtypes are grown to 85-100% confluence on standard tissue culture dishes in F12-Ham's growth media (Hyclone) with following additives: 10% donor calf serum (Hyclone), 200 U/mL penicillin (Hyclone), 200 μg/mL streptomycin (Hyclone), 20 mM HEPES (Hyclone), 200 μg/mL hygromycin Hyclone.
General overview: All SSTR subtypes are Gi coupled G-protein coupled receptors (GPCRs) that lead to decreases in intracellular cyclic AMP (cAMP) when activated by an agonist. Therefore, measurement of intracellular cAMP levels can be used to assess whether compounds of the invention are agonists of SSTR subtypes (John Kelly, Troy Stevens, W. Joseph Thompson, and Roland Seifert, Current Protocols in Pharmacology, 2005, 2.2.1-2.2). One example of an intracellular cAMP assay is described below.
Four days prior to the assay, 5000 Chinese hamster ovary (CHO) cells stably expressing the human somatostatin receptor subtype 2a are plated in each well of a 96-well tissue culture plate (Nest Biotech Cell, flat bottom with low evaporation tissue culture treated; Polystyrene; Non-Pyrogenic) in F12-Ham's media (100 μL/well) supplemented with 200 μg/mL of hygromycin. Incubate at 37 C, 5% CO2, 95% humidity for four days. The cells should reach full confluence. On the day of the assay, various dilutions of the compounds of the invention are prepared in assay buffer (HRTF cAMP kit, Cisbio) in the presence of 1.6 μM NKH-477 (a water-soluble forskolin derivative) and 50 μL of the dilutions are added to the cultured cells and incubated for 20 minutes at 37° C. […] 50 μL of lysis buffer (HRTF cAMP kit, Cisbio) is added to each well and incubated at room temperature for 30 minutes, after which 150 μL assay buffer is added to each well. In a 384-well plate (Grenier, 784-080), 10 μL of assay mixture is added to 10 μL of developing mixture, containing cAMP detection and visualization antibodies are added and the assay is allowed incubate for 1-24 hours at room temperature. The intracellular cAMP concentrations are then measured using a commercially available detection kit (for example, the cAMP HTRF kit, Cisbio). The measured intracellular cAMP concentrations are plotted vs. the concentration of the compounds of the invention and the EC50 of the compounds are calculated using standard methods.

SSTR1 = biological target: T2, SSTR1 (Homo sapiens, UniProt P30872); assay: cAMP functional agonist assay, CHO cells expressing SSTR1; conditions: CHO cells stably expressing SSTR1, cAMP; read-out: SSTR1 EC50
T2 construct: expressed in transfected cells
Procedure, shortened: (§1)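 CHO cells stably expressing the human or rodent somatostatin receptor subtype. Agonism measured as decrease in intracellular cAMP via Gi coupling.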

SSTR3 = SSTR3 (UniProt P32745); assay: cAMP functional agonist assay, CHO cells expressing SSTR3; conditions: CHO cells stably expressing SSTR3, cAMP
Procedure, shortened: (§2)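 CHO cells stably expressing a single somatostatin receptor subtype, grown to 85–100% confluence in F12-Ham's with 10% donor calf serum and hygromycin. Agonism assessed as a decrease in intracellular cAMP via Gi coupling.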

SSTR4 = biological target: T3, SSTR4 (Homo sapiens, UniProt P31391); assay: cAMP functional agonist assay, CHO cells expressing SSTR4; conditions: CHO cells stably expressing SSTR4, cAMP; read-out: SSTR4 EC50
T3 construct: expressed in transfected cells
Procedure, shortened: as §1

SSTR5 = biological target: T4, SSTR5 (Homo sapiens, UniProt P35346); assay: cAMP functional agonist assay, CHO cells expressing SSTR5; conditions: CHO cells stably expressing SSTR5, cAMP
T4 construct: expressed in transfected cells
Procedure, shortened: as §2

T3 sequence (P31391 whole entry): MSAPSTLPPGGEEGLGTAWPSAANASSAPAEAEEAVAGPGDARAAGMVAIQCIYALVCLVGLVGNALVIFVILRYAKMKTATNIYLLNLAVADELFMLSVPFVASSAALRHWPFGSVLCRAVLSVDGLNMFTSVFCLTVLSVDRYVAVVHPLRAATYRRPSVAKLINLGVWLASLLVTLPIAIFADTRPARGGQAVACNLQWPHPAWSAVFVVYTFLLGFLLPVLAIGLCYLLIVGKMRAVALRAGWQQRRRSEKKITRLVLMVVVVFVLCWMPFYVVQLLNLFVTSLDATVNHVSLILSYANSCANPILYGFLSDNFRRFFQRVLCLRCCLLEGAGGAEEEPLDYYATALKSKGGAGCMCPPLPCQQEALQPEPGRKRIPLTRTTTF
Sequence of SSTR3 (P32745 whole entry): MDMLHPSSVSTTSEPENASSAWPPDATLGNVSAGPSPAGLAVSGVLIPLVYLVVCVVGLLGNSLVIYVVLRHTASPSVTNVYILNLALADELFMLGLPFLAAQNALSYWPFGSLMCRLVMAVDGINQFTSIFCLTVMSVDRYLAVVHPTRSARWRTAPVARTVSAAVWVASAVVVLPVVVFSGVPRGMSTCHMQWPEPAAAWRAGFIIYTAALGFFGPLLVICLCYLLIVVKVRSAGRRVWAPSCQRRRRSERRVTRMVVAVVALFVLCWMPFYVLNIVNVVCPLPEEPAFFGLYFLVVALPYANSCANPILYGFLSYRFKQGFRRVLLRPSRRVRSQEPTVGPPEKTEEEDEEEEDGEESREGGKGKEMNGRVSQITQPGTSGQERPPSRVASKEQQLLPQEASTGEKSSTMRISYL
T4 sequence (P35346 whole entry): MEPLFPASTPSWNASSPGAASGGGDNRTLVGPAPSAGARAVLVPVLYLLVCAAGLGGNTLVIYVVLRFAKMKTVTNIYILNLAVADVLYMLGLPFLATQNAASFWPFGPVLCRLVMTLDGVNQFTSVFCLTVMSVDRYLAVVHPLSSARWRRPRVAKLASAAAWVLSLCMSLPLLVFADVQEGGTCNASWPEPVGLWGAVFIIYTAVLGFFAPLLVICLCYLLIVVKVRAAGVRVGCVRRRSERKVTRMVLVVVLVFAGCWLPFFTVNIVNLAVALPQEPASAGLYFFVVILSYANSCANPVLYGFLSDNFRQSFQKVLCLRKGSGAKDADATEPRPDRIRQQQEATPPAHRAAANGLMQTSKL
T1 sequence (P30874 whole entry): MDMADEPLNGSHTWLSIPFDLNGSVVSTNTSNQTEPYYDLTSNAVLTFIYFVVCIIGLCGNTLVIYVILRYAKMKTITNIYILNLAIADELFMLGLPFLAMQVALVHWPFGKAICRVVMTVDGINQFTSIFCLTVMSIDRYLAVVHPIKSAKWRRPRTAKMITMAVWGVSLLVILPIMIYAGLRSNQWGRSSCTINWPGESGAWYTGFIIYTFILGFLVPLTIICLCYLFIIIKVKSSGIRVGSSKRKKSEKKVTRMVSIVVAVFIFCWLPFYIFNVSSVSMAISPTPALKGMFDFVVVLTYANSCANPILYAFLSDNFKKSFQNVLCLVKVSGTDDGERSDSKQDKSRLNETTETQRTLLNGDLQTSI
T2 sequence (P30872 whole entry): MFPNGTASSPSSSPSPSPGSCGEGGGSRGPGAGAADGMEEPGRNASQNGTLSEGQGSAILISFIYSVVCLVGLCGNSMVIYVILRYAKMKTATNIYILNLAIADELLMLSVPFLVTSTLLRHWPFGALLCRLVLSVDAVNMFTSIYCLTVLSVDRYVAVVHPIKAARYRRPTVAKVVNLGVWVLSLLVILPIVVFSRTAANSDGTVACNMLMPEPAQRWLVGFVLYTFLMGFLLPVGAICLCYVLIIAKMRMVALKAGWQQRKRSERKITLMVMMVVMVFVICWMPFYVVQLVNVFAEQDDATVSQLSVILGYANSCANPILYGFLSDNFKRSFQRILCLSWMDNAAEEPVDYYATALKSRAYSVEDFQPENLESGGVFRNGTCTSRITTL

| EC50 [1] [nM] | EC50 (SSTR1) [nM] | EC50 (SSTR3) [nM] | EC50 (SSTR4) [nM] | EC50 (SSTR5) [nM] | Molecule |
| --- | --- | --- | --- | --- | --- |
| < 100 | 100 to 10000 | < 100 | < 100 | 100 to 10000 | Cc1cc(C)cc(-c2cnc3ncn(-c4cc(O)cc(F)c4)c(=O)c3c2CN(C)C[C@@H]2CCCCN2)c1 [Compound A-27, 6-(3,5-dimethylphenyl)-3-(3-fluoro-5-hydroxyphenyl)-5-({methyl[(2S)-piperidin-2-ylmethyl]amino}methyl)-3H,4H-pyrido[2,3-d]pyrimidin-4-one] |
| < 100 | 100 to 10000 | < 100 | < 100 | > 10000 | Cc1cc(Cl)cc(-c2cnc3ncn(-c4cc(O)cc(C(F)(F)F)c4)c(=O)c3c2CN(C)C[C@@H]2CCCN2)c1 [Compound A-48, 6-(3-chloro-5-methylphenyl)-3-[3-hydroxy-5-(trifluoromethyl)phenyl]-5-({methyl[(2S)-pyrrolidin-2-ylmethyl]amino}methyl)-3H,4H-pyrido[2,3-d]pyrimidin-4-one] |
| < 100 | 100 to 10000 | < 100 | < 100 | > 10000 | Cc1cc(Cl)cc(-c2cnc3ncn(-c4cc(O)cc(Cl)c4)c(=O)c3c2CN(C)C[C@@H]2CCCN2)c1 [Compound A-49, 3-(3-chloro-5-hydroxyphenyl)-6-(3-chloro-5-methylphenyl)-5-({methyl[(2S)-pyrrolidin-2-ylmethyl]amino}methyl)-3H,4H-pyrido[2,3-d]pyrimidin-4-one] |
| < 100 | 100 to 10000 | < 100 | < 100 | > 10000 | Cc1cccc(-c2cnc3ncn(-c4cccc(O)c4)c(=O)c3c2CN(C)CC2CCCCN2)c1 (stereo not shown) [Compound A-21, 3-(3-hydroxyphenyl)-5-{[methyl(piperidin-2-ylmethyl)amino]methyl}-6-(3-methylphenyl)-3H,4H-pyrido[2,3-d]pyrimidin-4-one] |
| < 100 | > 10000 | 100 to 10000 | < 100 | 100 to 10000 | Cc1cc(C)cc(-c2cnc3nc(C)n(-c4cc(O)cc(F)c4)c(=O)c3c2CN(C)C[C@@H]2CCCN2)c1 [Compound A-55, 6-(3,5-dimethylphenyl)-3-(3-fluoro-5-hydroxyphenyl)-2-methyl-5-({methyl[(2S)-pyrrolidin-2-ylmethyl]amino}methyl)-3H,4H-pyrido[2,3-d]pyrimidin-4-one] |
| < 100 | 100 to 10000 | < 100 | < 100 | > 10000 | 5-({[(2S)-2-aminobutyl](methyl)amino}methyl)-6-(3,5-dimethylphenyl)-3-[3-hydroxy-5-(trifluoromethyl)phenyl]-3H,4H-pyrido[2,3-d]pyrimidin-4-one [Compound A-63] |
| 100 to 10000 | > 10000 | > 10000 | 100 to 10000 | > 10000 | CCOC(=O)CNCCN(CC)Cc1c(-c2cc(C)cc(C)c2)cnc2ncn(-c3cccc(O)c3)c(=O)c12 [Compound A-68] |
| < 100 | 100 to 10000 | 100 to 10000 | < 100 | > 10000 | Cc1cc(Cl)cc(-c2cnc3ncn(-c4cc(F)cc(C(N)=O)c4)c(=O)c3c2CN(C)C[C@@H]2CCCN2)c1 [Compound A-50, 3-[6-(3-chloro-5-methylphenyl)-5-({methyl[(2S)-pyrrolidin-2-ylmethyl]amino}methyl)-4-oxo-3H,4H-pyrido[2,3-d]pyrimidin-3-yl]-5-fluorobenzamide] |
| < 100 | 100 to 10000 | 100 to 10000 | < 100 | 100 to 10000 | CCCN(CCN)Cc1c(-c2cc(C)cc(C)c2)cnc2ncn(-c3cccc(O)c3)c(=O)c12 [Compound A-4, 5-{[(2-aminoethyl)(propyl)amino]methyl}-6-(3,5-dimethylphenyl)-3-(3-hydroxyphenyl)-3H,4H-pyrido[2,3-d]pyrimidin-4-one] |
| < 100 | 100 to 10000 | < 100 | < 100 | 100 to 10000 | Cc1cc(Cl)cc(-c2cnc3ncn(-c4cc(O)cc(F)c4)c(=O)c3c2CN(C)C[C@@H]2CCCCN2)c1 [Compound A-28, 6-(3-chloro-5-methylphenyl)-3-(3-fluoro-5-hydroxyphenyl)-5-({methyl[(2S)-piperidin-2-ylmethyl]amino}methyl)-3H,4H-pyrido[2,3-d]pyrimidin-4-one] |
| < 100 | > 10000 | < 100 | < 100 | 100 to 10000 | Cc1cc(Cl)cc(-c2cnc3nc(C)n(-c4cc(O)cc(F)c4)c(=O)c3c2CN(C)C[C@@H]2CCCN2)c1 [Compound A-59, 6-(3-chloro-5-methylphenyl)-3-(3-fluoro-5-hydroxyphenyl)-2-methyl-5-({methyl[(2S)-pyrrolidin-2-ylmethyl]amino}methyl)-3H,4H-pyrido[2,3-d]pyrimidin-4-one] |
